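Five concentrations, 48 hours, 96-well plates. At the GI50, growth is halved. At the TGI there is no net growth.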 Where a SMILES comes first, the peptide text is derived from it. The star is where a group is joined. Fmoc = O=C(OCC1c2ccccc2-c2ccccc21)*; OBn = c1ccc(CO*)cc1; tBu = CC(C)(C)*
Tests used:
Experiment in all cases: NCI-60 cell line screen, 48 h
HOP-62 NSCLC = tested on: HOP-62 NSCLC
NCI/ADR-RES ovarian = tested on: NCI/ADR-RES ovarian
MALME-3M melanoma = tested on: MALME-3M melanoma
K-562 leukemia = tested on: K-562 leukemia
OVCAR-3 ovarian = tested on: OVCAR-3 ovarian
M14 melanoma = tested on: M14 melanoma
SF-539 CNS = tested on: SF-539 CNS
MDA-MB-231 breast = tested on: MDA-MB-231 breast
MCF7 breast = tested on: MCF7 breast
HCC-2998 colon = tested on: HCC-2998 colon

Compound | TGI (HOP-62 NSCLC) [µM] | TGI (NCI/ADR-RES ovarian) [µM] | TGI (MALME-3M melanoma) [µM] | TGI (K-562 leukemia) [µM] | TGI (OVCAR-3 ovarian) [µM] | TGI (M14 melanoma) [µM] | TGI (SF-539 CNS) [µM] | TGI (MDA-MB-231 breast) [µM] | TGI (MCF7 breast) [µM] | TGI (HCC-2998 colon) [µM] | GI50 (HOP-62 NSCLC) [µM] | GI50 (NCI/ADR-RES ovarian) [µM] | GI50 (MALME-3M melanoma) [µM] | GI50 (K-562 leukemia) [µM] | GI50 (OVCAR-3 ovarian) [µM] | GI50 (M14 melanoma) [µM] | GI50 (SF-539 CNS) [µM] | GI50 (MDA-MB-231 breast) [µM] | GI50 (MCF7 breast) [µM] | GI50 (HCC-2998 colon) [µM]
CSC1=C(C)C(/C=N/Nc2ccc([N+](=O)[O-])cc2)=C(C)N(c2ccccc2)S1(=O)=O | > 100 | > 100 | > 100 | > 100 | > 100 | > 100 | > 100 | > 100 | > 100 | > 100 | – | – | – | – | – | – | – | – | – | –
COc1cc(/C=C2\C(=O)N(c3ccc(Cl)cc3)C(c3ccccc3)S2(=O)=O)cc(OC)c1OC (stereo not given) | > 96.7 | > 100 | > 100 | > 100 | > 100 | > 61.6 | > 100 | > 100 | > 63.6 | > 100 | – | – | – | – | – | – | – | – | – | –
COc1ccc(/C=C2\N=C3N(Cc4ccccc4)C=C(N)N3C2=O)cc1 | > 100 | > 100 | > 100 | > 100 | > 100 | > 100 | > 100 | > 100 | > 100 | > 100 | – | – | – | – | – | – | – | – | – | –
O=C(c1ccccc1)C1C(c2ccccc2[N+](=O)[O-])N1C1CCCCC1 (stereo not given) | 34.1 | > 85.2 | 29.4 | 8.06 | 7.82 | 23.9 | 4.77 | 23 | 15.9 | 18 | – | – | – | – | – | – | – | – | – | –
C=C(CCC(=O)N(CCc1c[nH]c2ccccc12)C(=O)c1ccccc1CSCC)C(=O)OC | > 100 | > 100 | > 100 | > 100 | > 100 | > 100 | > 100 | > 100 | > 100 | > 95.4 | – | – | – | – | – | – | – | – | – | –
CN=C1C=C(/N=C2/C=C(N/C(=C\C#N)C(C)(C)O)OC2(C)C)OC1(C)C | > 100 | > 62.6 | > 100 | 80.4 | > 100 | > 78.4 | > 100 | > 100 | > 100 | > 100 | – | – | – | – | – | – | – | – | – | –
CCOc1ccc(Nc2nc(N)nc(N)c2N=O)cc1 | > 100 | > 100 | > 100 | > 100 | > 100 | > 100 | > 100 | > 100 | > 100 | > 100 | – | – | – | – | – | – | – | – | – | –
CCCCCCCC(=O)OC[n+]1cccc(-c2c(COC(=O)NC(C)C)c(COC(=O)NC(C)C)c3n2CCC3)c1 | > 100 | > 100 | > 100 | > 100 | > 100 | > 100 | > 89.5 | > 100 | > 100 | > 100 | – | – | – | – | – | – | – | – | – | –
CC(OC(C)(C)C)C(NC(=O)OCC1c2ccccc2-c2ccccc21)C(=O)NC(Cc1ccccc1)C(=O)OCc1ccccc1 (stereo not given) (Fmoc-Thr(tBu)-Phe-OBn; configuration not given here) | > 100 | > 100 | > 100 | > 100 | > 100 | > 100 | > 100 | > 100 | > 100 | > 100 | – | – | – | – | – | – | – | – | – | –
CCOC(=O)NC(Nc1ccc(C(=O)O)cc1)(C(F)(F)F)C(F)(F)F | > 100 | > 100 | > 100 | > 100 | > 100 | > 100 | > 100 | > 100 | > 100 | > 100 | – | – | – | – | – | – | – | – | – | –
COc1ccc(C2CC(c3cccc(Nc4ccncc4)c3)=NN2c2ccccc2)cc1 (stereo not given) | 5.81 | 3.46 | 3.08 | 5.05 | 3.52 | 3.74 | 3.04 | 3.04 | 4.01 | 3.01 | 2.25 | 1.74 | 1.62 | 2 | 1.86 | 1.87 | 1.61 | 1.62 | 1.87 | 1.61
CCOC(=O)CCC(NC(=O)c1ccc(NCc2ccc3nc(OC)c(OC)nc3c2)c2ccccc12)C(=O)OCC (stereo not given) | > 100 | > 100 | > 100 | > 100 | > 100 | > 100 | 56.5 | > 100 | > 100 | > 100 | – | – | – | – | – | – | – | – | – | –
CC1CC[C@@]2(OC1)OC1C[C@H]3[C@@H]4CC=C5C[C@@H](OC6OC(CO)C(OC7OC(CO)C(O)C(O)C7O)C(O)C6OC6OC(C)C(O)C(O)C6O)CC[C@]5(C)[C@H]4CC[C@]3(C)C1[C@@H]2C (stereo not given in full) | 1.6 | 5.71 | 1.33 | 1.09 | 1.7 | 0.859 | 0.88 | 0.918 | 1.36 | 0.89 | – | – | – | – | – | – | – | – | – | –
C[N+](C)([O-])C12CC3CC(CC(C3)C1)C2 | > 100 | > 100 | > 100 | > 100 | 58 | > 100 | > 100 | > 100 | > 100 | > 100 | – | – | – | – | – | – | – | – | – | –
CC(CSc1nc2c(c(=N)n1-c1ccccc1)c(=S)n(-c1ccccc1)c(=S)n2-c1ccccc1)CN(C)C (stereo not given) | 3.62 | 11.8 | 3.23 | 3.14 | 3.09 | 3.56 | 7.9 | 3.46 | 1.05 | 2.7 | – | – | – | – | – | – | – | – | – | –
COC(=O)c1sc2c(Cl)c(Cl)sc2c1Cl | > 100 | > 100 | > 100 | > 100 | > 100 | > 100 | > 100 | > 100 | > 100 | > 100 | – | – | – | – | – | – | – | – | – | –
CC(=O)N1CN2C(=O)CCC2c2cc(C)ccc21 (stereo not given) | > 100 | > 100 | > 100 | > 100 | > 100 | > 100 | > 100 | > 100 | > 100 | > 100 | – | – | – | – | – | – | – | – | – | –

Source: PubChem BioAssay (NCI)
